From patent EP0358766A1, “METHOD OF STERILIZING PLANT ANTHERS” (VSESOJUZNY NAUCHNO-ISSLEDOVATELSKY INST. SELSKOKHOZYAISTV. …, priority 1988, dated 1989)

Experiments:
[1] = system: diploidem Roggen Voskhod 2; test: Field test of gametocidal activity, diploid rye Voskhod 2; format: in vivo; settings: period V, 1% aqueous emulsion, 10 kg/ha in 1000 l water
From the text: Die gametozide Aktivität der erfindungsgemäßen Sterilisationsmittel war in Feldversuchen in verschiedenen bodenklimatischen Zonen mit Teilstücken von 10 m^2 Größe in dreibis viermaliger Wiederholung festgestellt. Jedes Sterilisationsmittel wurde mindenstens 5 Jahre lang geprüft.
Die Entwicklung der Perioden der Organogenese wird zytologisch überwacht. Die Behandlung von Pflanzen mit dem Sterilisationsmittel erfolgt am Anfang der fünften Periode der Organogenese nach Kupermann.
Mit dem Ährenschieben verwirklicht man die Isolierung von Hauptähren und anderen Stockwerken in Pergametbeuteln. Bei Weizen und Tritikale werden Einzelisolatoren benutzt. Bei Roggen schließt man je 1 Ähre von […] verschiedenen nebeneinander befindlichen Pflanzen unter einen gemeinsamen Isolator ein. Bei Hirse wird jede Rispe getrennt isoliert. Der Sterilitätsprozentsatz (X) für Weizen, Roggen, Tritikale und Hirse wird nach der Formel [formula] ermittelt.
Die Kornzahl in nicht isolierten Ähren von Kontrollpflanzen wird bedingt für 100 % Ansetzen bei freier Bestäubung angenommen.
Um zuverlässige Angaben zu erhalten, verwendet man 20 bis 25 Isolatoren je Wiederholung für Weizen und Tritikale, 10 bis 15 Isolatoren jeder Wiederholung für Roggen und Hirse.
Pflanzen von diploidem Roggen Voskhod 2 werden in der V. Periode der Organogenese mit einer 1%igen wäßrigen Emulsion von 1,1,3-Tribrompropan, 1,1,3-Tribrom-4-chlorbutan bzw. 1,1,2,3-Tetrabrompropan behandelt. Die Emulsion enthält 0,5 Masse% C12-C14-Kalziumalkylbenzolsulfonat und 0,01 Masse% Dimethylformamid. Der Verbrauch an Präparat beträgt 10 kg/ha bei 1000 1 Wasserdurchsatz. Die Prüfergebnisse sind in der Tabelle 14 angegeben. Die gleichen Ergebnisse sind bei der Behandlung von diploidem Roggen Voskhod 2 in der VI. Periode der Organogenese erhalten..

[2] = system: Winterweizens Sorte Mironowskaya 808; test: Field test of gametocidal activity (anther sterilisation), winter wheat Mironowskaya 808; format: in vivo, Weizen; settings: read-out: Prozentsatz der Sterilität %
[3] = workplace air limit; cited from earlier work

| Structure (SMILES) | Kornzahl der Ähre bei freier Bestäubung [1] | Kornzahl der Ähre unter Isolator [1] | Prozentsatz der Sterilität [1] | Prozentsatz des Ansetzens von Samen bei freier Bestäubung ([1]; control = 100) | pest or weed control at 1 %, 20000 g/ha [2] | maximale Arbeitsplatzkonzentration (MAK-Wert) [3] |
| --- | --- | --- | --- | --- | --- | --- |
| BrCCC(Br)Br [Beispiel 1, 1,1,3-Tribrompropan] | 48,6 | 0,9 | 98,2% | 89,0% | 98% | – |
| CC(Br)CBr (stereo not drawn) [Beispiel 5, 1,2-Dibrompropan] | – | – | – | – | – | 5 mg/m^3 |
